# Results from paper PMC7932555, “A diffusible signal factor of the intestine dictates Salmonella invasion through its direct control of the virulence activator HilD” (PLoS Pathogens, 2021).
# Biological target: T1, HilD^Q290A (Salmonella typhimurium, UniProt P0CL08, Q290A)
# T1 construct: made in house; host or cells: E. coli BL21 (DE3)
# T1 sequence (P0CL08 1-309 Q290A): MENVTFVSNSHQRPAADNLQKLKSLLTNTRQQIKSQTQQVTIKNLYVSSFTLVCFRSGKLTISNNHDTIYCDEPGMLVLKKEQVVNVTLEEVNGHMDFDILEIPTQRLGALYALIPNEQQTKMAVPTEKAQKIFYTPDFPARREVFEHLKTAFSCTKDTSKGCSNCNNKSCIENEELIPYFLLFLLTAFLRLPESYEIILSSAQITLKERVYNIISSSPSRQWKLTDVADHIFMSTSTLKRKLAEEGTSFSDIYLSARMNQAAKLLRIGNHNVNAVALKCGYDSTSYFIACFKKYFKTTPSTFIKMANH
# Assay: EMSA of hilA promoter DNA with HilD Q290A
# Assay type: biochemical
# Settings: 10 nM hilA promoter DNA, 30 μM fatty acid
# Method: These were performed as previously described. Briefly, 10 nM hilA promoter DNA (-286 to +31) was mixed with 150 nM HilD in a binding buffer (100 mM Tris pH 7.5, 10 mM EDTA, 1M KCl, 1 mM DTT, 50% v/v glycerol). Fatty acids or control solvents were added at various concentrations. Binding reaction was performed at room temperature for 1 hour. Dye solution was added to final concentration of 1X and samples were separated on 10% acrylamide gels. DNA was stained using SYBR Safe and visualized in BioRad GelDoc imaging system.
smiles,measurement,value
"CCCCCCCCCCCCC/C=C/C(=O)O [t2-HDA, trans-2-hexadecenoic acid]",effect on HilD binding to hilA promoter DNA,did not disrupt DNA binding
